Like-named read-outs stand apart in the source and are kept apart here.
What was measured:
[1] = system: P. aeruginosa 4961
Experimental: (§1) The MIC assay is a technique used to determine the lowest concentration of a particular antibiotic needed to inhibit visible growth of bacteria. In this method, two fold serial dilutions of the compound were prepared in broth media. An inoculum of overnight bacterial cultures will be prepared in the same broth medium. The serial dilution tubes will be inoculated with 0.025 ml of undiluted over-night culture (1:100), a 1×10-2 dilution (1:10,000), or a 1×10-4 dilution (1:1,000,000) of bacterial suspension. Results were recorded after 24 hour incubation at 35° C. without shaking by measuring OD600. The MIC is determined by the lowest concentration of compound where no growth is visible.

[2] = system: P. aeruginosa 4990
Experimental: as §1

[3] = system: S. aureus (8324-5)
Experimental: as §1

[4] = system: S. aureus (Col)
Experimental: as §1

[5] = system: Streptococcus pneumoniae; details: Based on SBA agar (not confirmatory)
Experimental: as §1

[6] = system: S. aureus USA 300 alpha toxin; details: 3 h incubation; hemolysis of 2% rabbit RBC, OD416 nm; FIG. 4
Experimental: • 1. Grow USA300 in MHA plate O/N • 2. Swab bacteria culture from plate and re-suspend in 2 ml PBS • 3. Spin and discard sup. • 4. Wash with 2 ml of PBS. • 5. Re-suspend in 2 ml LB. • 6. […] Add inoculum (make two different inoculum size: 1 and 1:10 in LB). […] Incubate at 370 C for 3 h • 11. Read growth OD600 (T3). • 12. Perform alpha hemolytic assay by using 2% rabbit RBC. Read OD416 nm (T3 hemolysis)

COCCCCCCCCCN1C[C@H](O)[C@@H](O)[C@H](O)[C@H]1CO.Cl [UV-4B, hydrochloric acid salt of N-(9-Methoxynonyl)deoxynojirimycin]
visible growth ([1]; UV-4B 5 mg/ml): − | visible growth ([1]; UV-4B 10 mg/ml): − | visible growth ([1]; UV-4B 20 mg/ml): − | MIC ([2]; Table 3): 5000 µg/mL | visible growth ([2]; UV-4B 0.04 mg/ml): + | visible growth ([2]; UV-4B 0.08 mg/ml): + | visible growth ([2]; UV-4B 0.16 mg/ml): + | visible growth ([2]; UV-4B 0.31 mg/ml): + | visible growth ([2]; UV-4B 0.63 mg/ml): + | visible growth ([2]; UV-4B 2.50 mg/ml): + | visible growth ([2]; UV-4B 5 mg/ml): − | visible growth ([2]; UV-4B 10 mg/ml): − | visible growth ([2]; UV-4B 20 mg/ml): − | MIC ([3]; Table 3, two independent tests): 2500 µg/mL | MIC ([3]; Table 4): 1250 µg/mL | growth (OD600) ([3]; Table 4, 0.02 mg/ml): + (+ OD600 <0.05) | growth (OD600) ([3]; Table 4, 0.04 mg/ml): + (+ OD600 <0.05) | growth (OD600) ([3]; Table 4, 0.08 mg/ml): + (+ OD600 <0.05) | growth (OD600) ([3]; Table 4, 0.16 mg/ml): + (+ OD600 <0.05) | growth (OD600) ([3]; Table 4, 0.31 mg/ml): + (+ OD600 <0.05) | growth (OD600) ([3]; Table 4, 0.63 mg/ml): + (+ OD600 <0.05) | growth (OD600) ([3]; Table 4, 2.50 mg/ml): − (− OD600 >0.05) | growth (OD600) ([3]; Table 4, 5 mg/ml): − (− OD600 >0.05) | growth (OD600) ([3]; Table 4, 10 mg/ml): − (− OD600 >0.05) | growth (OD600) ([3]; Table 4, 20 mg/ml): − (− OD600 >0.05) | visible growth ([3]; UV-4B 0.04 mg/ml): + | visible growth ([3]; UV-4B 0.08 mg/ml): + | visible growth ([3]; UV-4B 0.16 mg/ml): + | visible growth ([3]; UV-4B 0.31 mg/ml): + | visible growth ([3]; UV-4B 0.63 mg/ml): + | visible growth ([3]; UV-4B 2.50 mg/ml): − | visible growth ([3]; UV-4B 5 mg/ml): − | visible growth ([3]; UV-4B 10 mg/ml): − | visible growth ([3]; UV-4B 20 mg/ml): − | MIC ([4]; Table 3): 2500 µg/mL | MIC ([4]; Table 4): 625 µg/mL | growth (OD600) ([4]; Table 4, 0.02 mg/ml): + (+ OD600 <0.05) | growth (OD600) ([4]; Table 4, 0.04 mg/ml): + (+ OD600 <0.05) | growth (OD600) ([4]; Table 4, 0.08 mg/ml): + (+ OD600 <0.05) | growth (OD600) ([4]; Table 4, 0.16 mg/ml): + (+ OD600 <0.05) | growth (OD600) ([4]; Table 4, 0.31 mg/ml): + (+ OD600 <0.05) | growth (OD600) ([4]; Table 4, 0.63 mg/ml): − (− OD600 >0.05) | growth (OD600) ([4]; Table 4, 2.50 mg/ml): − (− OD600 >0.05) | growth (OD600) ([4]; Table 4, 5 mg/ml): − (− OD600 >0.05) | growth (OD600) ([4]; Table 4, 10 mg/ml): − (− OD600 >0.05) | growth (OD600) ([4]; Table 4, 20 mg/ml): − (− OD600 >0.05) | visible growth ([4]; UV-4B 0.02 mg/ml): + | visible growth ([4]; UV-4B 0.04 mg/ml): + | visible growth ([4]; UV-4B 0.08 mg/ml): + | visible growth ([4]; UV-4B 0.16 mg/ml): + | visible growth ([4]; UV-4B 0.31 mg/ml): + | visible growth ([4]; UV-4B 0.63 mg/ml): + | visible growth ([4]; UV-4B 2.50 mg/ml): − | visible growth ([4]; UV-4B 5 mg/ml): − | visible growth ([4]; UV-4B 10 mg/ml): − | MIC ([5]; Table 3): 10000 µg/mL | visible growth ([5]; UV-4B 0.04 mg/ml): + | visible growth ([5]; UV-4B 0.08 mg/ml): + | visible growth ([5]; UV-4B 0.16 mg/ml): + | visible growth ([5]; UV-4B 0.31 mg/ml): + | visible growth ([5]; UV-4B 0.63 mg/ml): + | visible growth ([5]; UV-4B 2.50 mg/ml): + | visible growth ([5]; UV-4B 5 mg/ml): + | visible growth ([5]; UV-4B 10 mg/ml): − | concentration allowing inhibition of alpha toxin production [6]: higher than 2.5 mg/ml

— patent US9623016B2, “Antibacterial compounds” (Emergent Virology LLC, priority 2013, dated 2017)
